For 5 molecules, EC50 results are on record in ChEMBL document CHEMBL5728734, “2,6-dioxaspiro [4,5] decane derivatives and preparation method therefor and pharmaceutical applications thereof” (2021).

The experiment deals with Mu-type opioid receptor (Homo sapiens, UniProt P35372). The experiment in a line: Detection of MOR cAMP Agonist Activity: The experiment was performed using a cAMP detection kit from Cisbio (Cisbio #62AM4PEJ).
Chain of Mu-type opioid receptor (P35372 whole entry): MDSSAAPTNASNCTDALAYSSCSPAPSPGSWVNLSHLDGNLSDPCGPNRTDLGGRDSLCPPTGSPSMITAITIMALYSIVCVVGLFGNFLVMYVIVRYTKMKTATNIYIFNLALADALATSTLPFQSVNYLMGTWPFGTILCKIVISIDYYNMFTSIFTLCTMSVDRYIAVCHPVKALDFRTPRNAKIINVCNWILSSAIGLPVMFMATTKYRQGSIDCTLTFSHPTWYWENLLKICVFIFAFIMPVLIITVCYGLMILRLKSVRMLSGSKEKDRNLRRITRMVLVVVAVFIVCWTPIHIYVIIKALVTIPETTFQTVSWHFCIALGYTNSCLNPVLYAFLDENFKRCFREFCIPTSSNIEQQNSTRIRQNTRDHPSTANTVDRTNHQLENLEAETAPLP
For `c1ccc([C@]2(CCNCc3scc4c3CCC4)CCO[C@]3(CCOC3)C2)nc1`, the EC50 (usually the concentration needed to bring the measured effect to its halfway point) worked out at 0.47 nM. The molecule `Fc1ccc([C@]2(CCNCc3scc4c3CCC4)CCO[C@]3(CCOC3)C2)nc1` displayed an EC50 of 0.1 nM. Molecule `c1ccc([C@]2(CCN[C@H]3CCc4ccccc43)CCO[C@]3(CCOC3)C2)nc1` returned an EC50 of 4 nM. `Cc1cccc(CNCC[C@@]2(c3ccc(F)cn3)CCO[C@]3(CCOC3)C2)c1` showed an EC50 of 0.1 nM. `c1ccc([C@]2(CCNCc3cc4c(s3)CCC4)CCOC3(CCCC3)C2)nc1` yielded an EC50 of 0.9 nM.
